Here are results for five molecules from US6369294B1, “Methods comprising apoptosis inhibitors for the generation of transgenic pigs” (Texas A&M University System, priority 1996, dated 2002).

Where “and” joins values, the source holds several entries; their conditions need not be identical. Identical values can stand only once.

One experiment has as its system STO feeder cells. Nature of the experiment: STO feeder cells plated with or without bFGF, morphology. The experiment is classed as cell-based, mouse. The note with it: PES media containing 40 ng/ml bFGF for 48 hours. As to the method:
(§1) STO feeder cells were plated in PES media alone for 48 hours or in PES media containing 40 ng/ml bFGF for the same period of time. […] It is not presently known whether bFGF is acting directly on the proliferation rate of the PGCs or whether the effect is through a change in the physiology of the STO cells which then effects the PGCs.

Experiment [1] has as its system porcine primordial germ cells. Description: Isolation of porcine primordial germ cells with bFGF. The experiment is classed as cell-based. Here is the method:
as §1
Thirdly, when low density feeders are used to culture porcine PGCs, very few colonies grow and the few that do grow are always in direct contact with the feeder cells. No colonies grow on the plastic, even if surrounded by STO cells. Thus it is unlikely that the STO's are producing a soluble factor. Additionally, to isolate porcine PGC-derived cells, it is an absolute requirement that bFGF be added to the feeders. The bFGF drastically changes the morphology of the feeder cells. Thus the bFGF may be acting on the feeder to promote/inhibit production of a matrix component versus acting directly on the PGC cells. Also, very few colonies are obtained when plating porcine PGCs on feeders made within 6 hours. However, feeders made 24 hours prior to plating yield much better results. Thus this period of time may be required for synthesis and secretion of some matrix component.

Another experiment has as its system porcine ICM (pICM). Nature of the experiment: In vitro differentiation assay of cultured porcine inner cell mass, graded 1 to 5. The experiment is classed as cell-based. The conditions noted are these: for differentiation score on day two, study 2: scale 1 (fully undifferentiated) to 5 (fully differentiated), p<0.05. The text has this:
The inventors have developed a grading system to detect changes in the differentiation status of in vitro cultured PGC cells or the pICM. In the first study porcine ICMs (day 7) were isolated by immunosurgery and cultured 4 days in DMEM-based medium (D medium) or DMEM/Hams F-10 (1:1)-based medium (D/H medium) with or without human leukemia inhibitory factor (hLIF; 1000 μ/ml). For the second study pICMs were collected as above and cultured 4 days in one of six treatments: control medium, human leukemia inhibitory factor (hLIF; 1000 μ/ml), human interleukin-6 (hIL-6; 100 ng/ml), hIL-6+hIL-6 soluble receptor (hIL6+sR; 100 ng/ml+2.5 μg/ml), human oncostatin M (hOSM; 100 ng/ml), or rat ciliary neurotrophic factor (rCNTF; 100 ng/ml). All cytokines were prepared in Dulbecco's Modified Eagles Medium/Hams F-10 (1:1)-based medium. The colonies were photographed daily for morphological analysis.
pICMs were categorized into one of two types based on their morphological profile: type A, non-epithelial or type B, epithelial-like. The pICM differentiation was evaluated using standardized differentiation profiles. Each pICM series was graded on a scale of 1 (fully undifferentiated) to 5 (fully differentiated) for each time point. Differentiation was verified by alkaline phosphatase activity, cytokeratin staining, and scanning electron microscopy. […] Furthermore, addition of rCNTF gave the lowest overall mean differentiation score (2.53±0.15). […] The grading system employed was thus an effective tool for detecting treatment effects on differentiation of the developing pICM.

In experiment [2] the test system is PGC. Description: Optimal concentration of α2-macroglobulin: ratio of AP positive colonies to control samples. The conditions noted are these: for ratio of AP positive colonies compared to control samples: three trials. The experiment is classed as cell-based. Here is the method: An additional study was performed to determine the optimal concentration of α2-macroglobulin. The ratio of AP positive colonies in samples containing either 1 μg/ml or 0.5 μg/ml as compared to control samples was determined for three trials. The ratios at 1 μg/ml were 0.81±0.37, 0.84±0.23 and 0.83±0.27, while at 0.5 μg/ml they were 1.98±0.36, 1.43±0.27 and 1.70±0.41.

The next experiment concerns bovine PGC's. Description: Third passage bovine PGC colonies with or without α2-macroglobulin (preliminary study). The experiment is classed as cell-based. The source says: The ability of colonies cultured and passaged in the presence or absence of α2-macroglobulin to survive in an undifferentiated state for multiple passages is currently being studied. In a preliminary study twice as many colonies were obtained from third passage bovine PGC's (22 versus 45) cultured in media with α2-macroglobulin than in media without the protease inhibitor. Moreover, the colonies appear on average 2-3 days earlier and are of larger size when cultured in the presence of α2-macroglobulin.

The test system of a further experiment is cultured PGCs. Nature of the experiment: Passage of cultured PGCs in presence or absence of α2-macroglobulin, alkaline phosphatase positive colonies. The experiment is classed as cell-based. The text has this:
The effect of α2-macroglobulin on the ability to passage cells was also studied. To test the ability of α2-macroglobulin to protect against the losses normally observed when cultured PGCs are trypsinized, cells were passaged twice in the presence or absence of α2-macroglobulin, the colonies fixed, stained for alkaline phosphatase and the number of alkaline phosphatase positive colonies determined. PGCs were collected in PES and plated on feeder layers in the presence or absence of media containing 1 μg/ml α2-macroglobulin. Colonies were allowed to grow for 7 days, trypsinized as described above and plated again in media with or without α2-macroglobulin. Samples were done in duplicate and corrected for the number of added cells.

A further experiment concerns PGCs. Description: Effect of isolation procedure and α2-macroglobulin on PGCs developing into alkaline phosphatase positive colonies. The experiment is classed as cell-based, pig. The conditions noted are these: α2-macroglobulin 1 μg/ml; for alkaline phosphatase positive colonies (replicates R1-R3): counted six days later. As to the method:
Genital ridges from two day 25-27 pig fetuses were collected, divided into four groups (a 2×2 study), placed in PES media either with α2-macroglobulin at 1 μg/ml (2 groups) or without α2-macroglobulin (2 groups), and immediately either needle teased to allow colonies to seep out (2 groups) or macerated (2 groups) with the help of a syringe. Briefly, the ridges were broken into small pieces by pressing them against the bottom of a dish with the back of a syringe. The disrupted tissues were further broken up by passing them several times through a 20 gauge needle until all large tissue clumps had been disrupted. Following tissue disruption, samples were centrifuged for 3-5 minutes at 250×g to settle tissue fragments and supernatant containing mostly single cells collected and centrifuged at 1000×g for 5 min. The resulting pellet was resuspended in PES containing LIF, SCF, and bFGF with or without human α2-macroglobulin, cells counted, and plated in triplicate in feeder layers.
Six days later colonies were fixed, stained for alkaline phosphatase activity, and counted.

Experiment [3] relates to PGC. Description: Addition of uteroferrin or uteroferrin rose to PGC culture media. The experiment is classed as cell-based. As to the method: The pellet, containing PGCs, was resuspended in PES media Following collection, the cells were rinsed 3 times by centrifugation and resuspended in PEG medium containing soluble recombinant human stem cells factor at 30 ng/ml, human basic fibroblast growth factor at 40 ng/ml, and LIF at 20 ng/ml and plated onto STO feeder layers. Additionally, the effect of the addition of 100 ng/ml of uteroferrin in the presence or absence of stem cell factor on the number of alkaline phosphatase positive colonies was determined.
In order to determine the beneficial effect provided by the serpin alone, a broad range protease inhibitor called α2-macroglobulin was studied (Feige et al., 1996).

The mark [4] stands for this setting: rCNTF 100 ng/ml, hLIF 1000 μ/ml.

As to bFGF: basic fibroblast growth factor, the “change in morphology of the feeder cells” value in the experiment with STO feeder cells is on record as “drastic change is seen in the morphology of the feeder cells”. Besides, the “requirement for the isolation of porcine primordial germ cells” value in experiment [1] is “essential component for the isolation of porcine primordial germ cells”.

Consider hLIF: human leukemia inhibitory factor, for which the “delay of differentiation of the developing pICM, study 1” value in the experiment on porcine ICM (pICM) (hLIF 1000 μ/ml, D or D/H medium, 4 days, p=0.08) is “neither hLIF nor culture medium delayed differentiation”. The “differentiation score on day two, study 2” value with porcine ICM (pICM) (setting [4]) is on record as 2.70±0.16.

As to “α2-macroglobulin: broad range protease inhibitor; apoptosis inhibitor added to PGC culture media at 1 μg/ml”, in the experiment on PGC [2] (0.5 μg/ml versus 1 μg/ml), the “factor by which the lower dose is more effective in generating AP positive colonies” value was about 2. Besides, the “ratio of AP positive colonies compared to control samples” value in the experiment with PGC [2] (α2-macroglobulin 0.5 μg/ml) is 1.98±0.36 and 1.43±0.27 and 1.70±0.41; in the experiment with PGC [2] (α2-macroglobulin 1 μg/ml), 0.81±0.37 and 0.84±0.23 and 0.83±0.27. Further, the “number of colonies from third passage bovine PGC's” value in the experiment with bovine PGC's (media with α2-macroglobulin, 22 without) was determined as 45. Moreover, the “colonies appear earlier than without α2-macroglobulin” value with bovine PGC's (on average) lay in the range of 2 to 3 days. In addition, the “Normalized value” in the experiment with cultured PGCs (1st passage +, 2nd passage +) was 2052 colonies per 1000 colonies plated; in the experiment on cultured PGCs (1st passage +, 2nd passage −), 1512 colonies per 1000 colonies plated; in the experiment on cultured PGCs (1st passage −, 2nd passage +), 1422 colonies per 1000 colonies plated; in the experiment with cultured PGCs (first passage, media with 1 μg/ml α2-macroglobulin), 22028 colonies per million cells; with PGCs (pig 1, macerate), 16395 colonies per million cells; in the experiment with PGCs (pig 1, teasing) it was 18087 colonies per million cells. Moreover, the Normalized value with PGCs (pig 2, macerate) is reported as 35865 colonies per million cells; with PGCs (pig 2, teasing) it was 37380 colonies per million cells. For the same molecule, the “alkaline phosphatase positive colonies (replicates R1-R3)” value with PGCs (pig 1, macerate) is 4712 and 5176 and 4368; with PGCs (pig 1, teasing) it was 4688 and 4960 and 5424; in the experiment with PGCs (pig 2, macerate) it was 8312 and 7872 and 8896; with PGCs (pig 2, teasing), 6200 and 6008 and 6864.

B1: uteroferrin: purple colored, progesterone-induced iron-containing glycoprotein secreted by uterine endometrial epithelium of pigs (protein, UniProt P09889 21-340, looked up)
Tartrate-resistant acid …: GTRTNTRTAPTPILRFVAVGDWGGVPNAPFHTAREMANAKAIATTVKTLGADFILSLGDNFYFTGVHDAKDKRFQETFEDVFSDPSLRNVPWHVLAGNHDHLGNVSAQIAYSKISKRWNFPSPYYRLRFKIPRSNVSVAIFMLDTVTLCGNSDDFVSQQPERPRNLALARTQLAWIKKQLAAAKEDYVLVAGHYPVWSIAEHGPTHCLVKQLLPLLTTHKVTAYLCGHDHNLQYLQDENGLGFVLSGAGNFMDPSKKHLRKVPNGYLRFHFGAENSLGGFAYVEITPKEMSVTYIEASGKSLFKTKLPRRARSEHQHRRA
Regarding B1, in the experiment with PGC [3], the “effect on the number of resulting PGC colonies” value is “some improvement”.

B2: rCNTF: rat ciliary neurotrophic factor (protein, UniProt P20294 1-200, looked up)
Ciliary neurotrophic factor: MAFAEQTPLTLHRRDLCSRSIWLARKIRSDLTALMESYVKHQGLNKNINLDSVDGVPVASTDRWSEMTEAERLQENLQAYRTFQGMLTKLLEDQRVHFTPTEGDFHQAIHTLMLQVSAFAYQLEELMVLLEQKIPENEADGMPATVGDGGLFEKKLWGLKVLQELSQWTVRSIHDLRVISSHQMGISALESHYGAKDKQM
On to B2, for which the “differentiation score on day two, study 2” value with porcine ICM (pICM) (setting [4]) amounted to 2.07±0.15. The “overall mean differentiation score, study 2” value with porcine ICM (pICM) (scale 1 to 5, 4 day culture, rCNTF 100 ng/ml) was found to be 2.53±0.15.
